The values that follow come from publication PMC8001104, “Repurposing of Some Natural Product Isolates as SARS-COV-2 Main Protease Inhibitors via In Vitro Cell Free and Cell-Based Antiviral Assessments and Molecular Modeling Approaches” (Pharmaceuticals, 2021).

Values after ≈ are worked out from the molar mass of the structure shown. Like-named read-outs stand apart in the source and are kept apart here.

One series deals with SARS-CoV-2 3CL Protease (Severe acute respiratory syndrome coronavirus 2, UniProt P0DTD1). Kind of series: biochemical. The following applies: for % inhibition: 100 µM.
Details of series [1]: method as in PMID 31468636. The following applies: dose of 600 mg, healthy volunteers, cited from earlier work.
A short description of a further series: Cytotoxicity assay (MTT). Format: cell-based. The following applies: African green monkey, VERO-E6 cells. As to the method:
The cytotoxic activity of the tested compounds was tested in VERO-E6 cells by using the 3-(4, 5-dimethylthiazol-2-yl)-2, 5-diphenyltetrazolium bromide (MTT) method with minor modifications. Briefly, the cells were seeded in 96 well-plates (100 µL/well at a density of 3 × 10^5 cells/mL) and incubated for 24 h at 37 °C in 5% CO2. After 24 h, cells were treated with various concentrations of the tested compounds in triplicates. 24 h later, the supernatant was discarded, and cell monolayers were washed with sterile 1× phosphate buffer saline (PBS) 3 times and MTT solution (20 µL of 5 mg/mL stock solution) was added to each well and incubated at 37 °C for 4 h followed by medium aspiration. In each well, the formed formazan crystals were dissolved with 200 µL of acidified isopropanol (0.04 M HCl in absolute isopropanol = 0.073 mL HCL in 50 mL isopropanol). Absorbance of formazan solutions was measured at λ max 540 nm with 620 nm as a reference wavelength using a multi-well plate reader. The percentage of cytotoxicity compared to the untreated cells was determined with the following equation.

For series [2], the system named is SARS-CoV-2 (hCoV-19/Egypt/NRC-03/2020). Briefly: Antiviral IC50 determination, reduction of virus-induced cytopathic effect in Vero-E6 cells (crystal violet). Format: cell-based. In general terms: Damage to the host cells serves as the signal in cytopathic effect assays.
The mark [3] stands for this setting: 100 µM concentration, FRET assay, read-out: % inhibition.
[4] abbreviates: SARS COV-2 viral main protease, FRET assay, read-out: IC50.
[5] abbreviates: 100 µM concentration, FRET assay.

The IC50 is the point on the concentration scale where inhibition reaches its midpoint. Usually inhibition stands for the drop in the measured response relative to a control, in per cent. In turn, `C[C@@H]1O[C@@H](O[C@@H]2[C@@H](O)[C@H](OCCc3ccc(O)c(O)c3)O[C@H](CO)[C@H]2OC(=O)/C=C/c2ccc(O)c(O)c2)[C@H](O)[C@H](O)[C@H]1O` [Compound 1, Acteoside] yielded an IC50 against SARS-CoV-2 3CL Protease of 43 nM. On SARS-CoV-2 3CL Protease (setting [3]), the inhibition at 100 µM amounted to 75.8%.

With `O=C(O)c1cc(O)c2c(c1)[C@@H]([C@H]1c3cc(C(=O)O)cc(O)c3C(=O)c3c(O[C@@H]4O[C@H](CO)[C@@H](O)[C@H](O)[C@H]4O)cccc31)c1cccc(O[C@@H]3O[C@H](CO)[C@@H](O)[C@H](O)[C@H]3O)c1C2=O` [Compound 2, Sennoside B], on SARS-CoV-2 3CL Protease, the inhibition at 100 µM came to 78.5%.

With `O=C(c1cc(O)cc(O)c1)c1c(O)cc(O)cc1O` [Compound 3, 2,3′,4,5′,6-Pentahydroxy benzophenone], at SARS-CoV-2 3CL Protease (setting [3]), the inhibition at 100 µM turned out to be 87.9%. Also, the IC50 on SARS-CoV-2 3CL Protease (setting [4]) turned out to be 102 nM.

As a reminder, the % inhibition is the percentage by which the read-out fell short of the control. A low value points to a response near the control. Consider `COc1ccc(-c2cc(=O)c3c(O)cc(O)cc3o2)cc1Oc1ccc(-c2cc(=O)c3c(O)cc(O)cc3o2)cc1` [Compound 4, Ochnaflavone-4′-methyl ether], for which, on SARS-CoV-2 3CL Protease (setting [5]), the “% inhibition” value is on record as 53.22%. Besides, the inhibition at 100 µM at SARS-CoV-2 3CL Protease (setting [3]) is 53%.

For orientation: Cmax means the maximum level reached in the sampled fluid or tissue. What is called CC50 is the concentration at which the toxic effect on the cells reaches its halfway point. For the molecule `O=C1C[C@@H](c2ccc(O)cc2)Oc2cc(O)cc(O)c21` [Compound 5, Naringenin], the toxicity entry in series [1] is “without relevant toxicity”. In addition, the Cmax in series [1] (read-out: serum Cmax) was about 50 µM. This molecule also came in with a CC50 at 24 h in “Cytotoxicity assay (MTT)” of 179 µg/mL (≈ 657 µM). At SARS-CoV-2 3CL Protease, the IC50 was 92 nM and the inhibition at 100 µM worked out at 97.9%. Besides, in series [2] (Severe acute respiratory syndrome coronavirus 2, Vero C1008, 72 h, read-out: IC50 (anti-SARS-CoV-2)), the IC50 came out at 28.3 µg/mL (≈ 104 µM). The “selectivity index (CC50/IC50)” value in series [2] (Vero-E6 cells) was determined as 6.3.

In the case of `O=c1cc(-c2ccc(O)cc2)oc2cc(OC3O[C@H](CO)[C@@H](O)[C@H](O)[C@H]3O)cc(O)c12` (stereo partly drawn) [Compound 6, Apigenin-7-O-β-D-glucoside], at SARS-CoV-2 3CL Protease (setting [3]), the inhibition at 100 µM is 83.1%. Besides, the IC50 at SARS-CoV-2 3CL Protease (setting [4]) was 74 nM.

On SARS-CoV-2 3CL Protease, `CC(C)C(=O)NCCC1(O)c2scnc2-c2nccc3c2C1Nc1ccccc1-3` (centres unmarked) [Compound 7, Sagitol C] came in with an inhibition at 100 µM of 27%.

`O=C(c1ccc(O)c(O)c1)c1c(O)cc(O)cc1OC1OC(CO)C(O)C(O)C1O` [Compound 8, Maclurin-6-O-β-D-glucopyranoside (Rhodanthenone)] displayed an inhibition at 100 µM at SARS-CoV-2 3CL Protease of 23.2%.

`C[C@@H]1O[C@@H](O[C@@H]2[C@@H](O)[C@H](OCCc3ccc(O)c(O)c3)O[C@H](COC(=O)/C=C/c3ccc(O)c(O)c3)[C@H]2O)[C@H](O)[C@H](O)[C@H]1O` [Compound 15, Iso-Acteoside] had an inhibition at 100 µM against SARS-CoV-2 3CL Protease of 24.6%.

In the case of `O=c1c(O)c(-c2ccc(O)cc2)oc2cc(OC3OC(CO)C(O)C(O)C3O)cc(O)c12` [Compound 16, Kaempferol-7-O-β-D-glucoside], 100 µM produced 23.3% inhibition against SARS-CoV-2 3CL Protease.

With `CC1=CC(=O)C(C(C)C)=CC1=O` [Compound 17, Thymoquinon], the “% inhibition” value on SARS-CoV-2 3CL Protease (setting [5]) is reported as 63.21%. Also, the inhibition at 100 µM at SARS-CoV-2 3CL Protease (setting [3]) is 63%.

The molecule `C/C=C1/[C@H](O[C@@H]2O[C@H](CO)[C@@H](O)[C@H](O)[C@H]2O)OC=C(C(=O)OC)[C@H]1CC(=O)OCCc1ccc(O)c(O)c1` [Compound 18, Oleuropein] came in with an inhibition at 100 µM against SARS-CoV-2 3CL Protease of 26.4%.
